Assay results: patent publication US8232283B2, “Raf inhibitors” (Forma Therapeutics, Inc., priority 2008, dated 2012)

Columns and labels:
[1] = target: T1, C-Raf (Homo sapiens, UniProt P04049); test: Biochemical inhibition, standard selectivity panel (Proteros); design: dose or concentration left out as unconfirmed
T1 construct: purchased Proteros biostructures GmbH (selectivity panel service)
Experimental: (§1) For example, selected compound of the present invention were tested in a standard selectivity panel including c-Raf, p38, and 22 other kinases (Proteros biostructures GmbH, Martinsried/Munich, Germany), under conditions of non-disclosure, non-dissemination and non-use.
(§2) In brief, selected compounds of the present invention were tested […] in triplicates against c-Raf, p38 as well as against Ab1, Akt1, Aur A, c-Kit, c-Raf, Cdk1/CycB, Chk1, FGFR3, Flt3, Fyn, IGF1-R, INSR, Lyn, MAPK-ERK1, PAK-4, PKCalpha, Plk1, Ret, ROCK2, RSK 1, c-Src, TIE2, and VEGF-R2.

[2] = target: T2, p38 (Homo sapiens, UniProt Q16539); test: as above; design: dose or concentration left out as unconfirmed
T2 construct: purchased Proteros biostructures GmbH (selectivity panel service)
T2 sequence (Q16539 whole entry): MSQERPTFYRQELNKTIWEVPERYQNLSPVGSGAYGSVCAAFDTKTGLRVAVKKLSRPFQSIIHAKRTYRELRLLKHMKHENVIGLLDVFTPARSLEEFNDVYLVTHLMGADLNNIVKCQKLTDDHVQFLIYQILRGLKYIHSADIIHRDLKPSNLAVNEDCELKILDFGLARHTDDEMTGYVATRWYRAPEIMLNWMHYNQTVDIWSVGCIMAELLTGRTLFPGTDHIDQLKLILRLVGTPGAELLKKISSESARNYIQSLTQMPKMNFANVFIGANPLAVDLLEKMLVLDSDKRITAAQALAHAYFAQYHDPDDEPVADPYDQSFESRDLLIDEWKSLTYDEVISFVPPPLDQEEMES
Experimental: as §1, §2

[3] = tested on: HT-29 [B-Raf V600E mutant]; test: Anti-proliferative activity, SRB assay, 72 hours; type: cell-based; conditions: Homo sapiens, read-out: CELLULAR IC50 [μM] HT-29 [B-Raf V600E mutant]
Experimental: We observed the surprising finding that compounds of the invention were useful in inhibiting proliferation of HT-29 tumor cells (see Table 3).
(§3) Cells were exposed to the test compounds at various concentrations appropriate to determine an IC50, for 72 hours, and cell proliferation was measured using the SRB assay according to Shekan et al (J Natl Cancer Inst (1990) 82, 1107-112) in order to estimate the IC50 values shown in Table 3.
(§4) Briefly, cells were plated in 96 well dishes 24 hours prior to compound addition at the densities specified in Table 11.1.
(§5) The assay was terminated with the addition of ice cold 10% TCA after growth medium has been removed and the plates were incubated over night at 4° C. The plates were then washed 5 times with water and 100 μl of a Sulforhodamine B solution ([…]) was added to each well. The plates were then incubated for 10 minutes at room temperature before removal of unbound dye by washing with 1% acetic acid. The bound dye was solubilized with 10 mM Trizma base and the absorbance read at OD520.
(§6) Inhibitory activity of the compounds was calculated as % inhibition of cell proliferation compared to cells treated with the solvent (DMSO).

[4] = tested on: A-431 [B-Raf wildtype]; test: Anti-proliferative activity, SRB assay, 72 hours; type: cell-based; conditions: Homo sapiens, read-out: CELLULAR IC50 [μM] A-431 [B-Raf wildtype]
Experimental: as §3, §4, §5, §6

T1 sequence (P04049 whole entry): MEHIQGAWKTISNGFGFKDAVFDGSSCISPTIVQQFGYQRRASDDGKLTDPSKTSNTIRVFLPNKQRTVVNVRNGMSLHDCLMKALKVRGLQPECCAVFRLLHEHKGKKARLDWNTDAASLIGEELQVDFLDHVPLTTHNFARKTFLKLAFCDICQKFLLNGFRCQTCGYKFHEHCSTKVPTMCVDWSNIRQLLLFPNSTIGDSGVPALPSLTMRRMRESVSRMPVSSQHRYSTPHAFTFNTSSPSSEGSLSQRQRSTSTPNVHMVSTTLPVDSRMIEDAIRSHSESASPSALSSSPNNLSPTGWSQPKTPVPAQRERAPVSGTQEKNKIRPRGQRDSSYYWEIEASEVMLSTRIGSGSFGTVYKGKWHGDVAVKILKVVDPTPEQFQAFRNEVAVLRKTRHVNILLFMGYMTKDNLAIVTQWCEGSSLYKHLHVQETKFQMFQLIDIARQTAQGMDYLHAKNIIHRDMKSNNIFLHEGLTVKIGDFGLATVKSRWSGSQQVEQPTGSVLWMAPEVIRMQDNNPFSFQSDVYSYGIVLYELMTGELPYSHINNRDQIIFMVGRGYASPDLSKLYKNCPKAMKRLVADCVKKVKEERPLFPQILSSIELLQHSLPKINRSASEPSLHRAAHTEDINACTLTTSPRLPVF

SMILES | inhibition [1] [%] | inhibition [2] [%] | IC50 [3] [µM] | IC50 [4] [µM]
COn1c(=O)c(-c2cc(NC(=O)c3cc(C(F)(F)F)ccc3F)ccc2Cl)cc2cnc(NCCN(C)C)nc21 [Compound 23, N-{4-Chloro-3-[2-(2-dimethylamino-ethylamino)-8-methoxy-7-oxo-7,8-dihydro-pyrido[2,3-d]pyrimidin-6-yl]-phenyl]-2-fl uoro-5-trifluoromethyl-benzamide] | > 70 | > 70 | < 5 | > 10
COn1c(=O)c(-c2cc(NC(=O)c3cccc(C(F)(F)F)c3)ccc2Cl)cc2cnc(NCCN(C)C)nc21 [Compound 24, N-{4-Chloro-3-[2-(2-dimethylamino-ethylamino)-8-methoxy-7-oxo-7,8-dihydro-pyrido[2,3-d]pynmidin-6-yl]-phenyl}-3-trifluoromethyl-benzamide] | > 70 | > 70 | < 5 | > 10
COn1c(=O)c(-c2cc(NC(=O)c3ccnc(N4CCOCC4)c3)ccc2Cl)cc2cnc(NCCN(C)C)nc21 [Compound 26, N-{4-Chloro-3-[2-(2-dimethylamino-ethylamino)-8-methoxy-7-oxo-7,8-dihydro-pyrido[2,3-d]pyrimidin-6-yl]-phenyl)-2-morpholin-4-yl-isonicotinamide] | > 70 | > 70 | < 10 | > 10
COn1c(=O)c(-c2cc(NC(=O)c3ccc(Oc4ccccc4)cc3)ccc2Cl)cc2cnc(NCCN(C)C)nc21 [Compound 27, N-{4-Chloro-3-[2-(2-dimethylamino-ethylamino)-8-methoxy-7-oxo-7,8-dihydro-pyrido[2,3-d]pyrimidin-6-yl]-phenyl}-4-phenoxy-benzamide] | > 70 | > 70 | < 5 | < 10
COn1c(=O)c(-c2cc(NC(=O)c3cc(F)cc(C(F)(F)F)c3)ccc2Cl)cc2cnc(NCCN(C)C)nc21 [Compound 28] | > 70 | > 70 | < 5 | > 10
COn1c(=O)c(-c2cc(NC(=O)c3ccc(Cl)c(OC(F)(F)F)c3)ccc2Cl)cc2cnc(NCCN(C)C)nc21 [Compound 30, 4-Chloro-N-(4-chloro-3-[2-(2-dimethylamino-ethylamino)-8-methoxy-7-oxo-7,8-dihydro-pyrido[2,3-d]pyrimidin-6-yl]-phenyl}-3-trifluoromethoxy-benzamide] | > 70 | > 70 | < 5 | > 10
COn1c(=O)c(-c2cc(NC(=O)c3cc(C(C)(C)C)nn3-c3ccccc3)ccc2Cl)cc2cnc(NCCN(C)C)nc21 [Compound 31, 5-tert-Butyl-2-phenyl-2H-pyrazole-3-carboxylic acid {4-chloro-3-[2-(2-dimethylamino-ethylamino)-8-methoxy-7-oxo-7,8-dihydro-pyrido[2,3-d]pyrimidin-6-yl]-phenyl}-amide] | ~70 | > 70 | < 5 | < 10
COn1c(=O)c(-c2cc(NC(=O)c3ccc(OCc4cccc(F)c4)c(Cl)c3)ccc2Cl)cc2cnc(NCCN(C)C)nc21 [Compound 32, 3-Chloro-N-{4-chloro-3-[2-(2-dimethylamino-ethylamino)-8-methoxy-7-oxo-7,8-dihydro-pyrido[2,3-d]pyrimidin-6-yl]-phenyl}-4-(3-fluoro-benzyloxy)-benzamide] | > 70 | > 70 | < 5 | < 10
COn1c(=O)c(-c2cc(NC(=O)c3ccc(C(C)(C)C)cc3)ccc2Cl)cc2cnc(NCCN(C)C)nc21 [Compound 37, 4-tert-Butyl-N-{4-chloro-3-[2-(2-dimethylamino-ethylamino)-8-methoxy-7-oxo-7,8-dihydro-pyrido[2,3-d]pyrimidin-6-yl]-phenyl)-benzamide] | > 70 | > 70 | < 5 | < 10
COn1c(=O)c(-c2cc(NC(=O)Nc3ccc(C(F)(F)F)cc3)ccc2Cl)cc2cnc(NCCN(C)C)nc21 [Compound 41, 1-{4-Chloro-3-[2-(2-dimethylamino-ethylamino)-8-methoxy-7-oxo-7,8-dihydro-pyrido[2,3-d]pyrimidin-6-yl]-phenyl}-3-(4-trifluoromethyl-phenyl)-urea] | > 70 | > 70 | < 5 | < 10
COn1c(=O)c(-c2cc(NC(=O)Nc3ccc(F)c(C(F)(F)F)c3)ccc2Cl)cc2cnc(NCCN(C)C)nc21 [Compound 42, 1-{4-Chloro-3-[2-(2-dimethylamino-ethylamino)-8-methoxy-7-oxo-7,8-dihydro-pyrido[2,3-d]pyrimidin-6-yl]-phenyl}-3-(4-fluoro-3-trifluoromethyl-phenyl)-urea] | > 70 | > 70 | < 5 | < 10
COn1c(=O)c(-c2cc(NC(=O)Nc3cccc(Cl)c3)ccc2Cl)cc2cnc(NCCN(C)C)nc21 [Compound 43, 1-{4-Chloro-3-[2-(2-dimethylamino-ethylamino)-8-methoxy-7-oxo-7,8-dihydro-pyrido[2,3-d]pyrimidin-6-yl]-phenyl}-3-(3-chloro-phenyl)-urea] | > 70 | > 70 | < 5 | > 10
COn1c(=O)c(-c2cc(NC(=O)Nc3ccc(C(C)(C)C)cc3)ccc2Cl)cc2cnc(NCCN(C)C)nc21 [Compound 44, 1-(4-tert-Butyl-phenyl)-3-{4-chloro-3-[2-(2-dimethylamino-ethylamino)-8-methoxy-7-oxo-7,8-dihydro-pyrido[2,3-d]pyrimidin-6-yl]-phenyl}-urea] | > 70 | > 70 | < 5 | < 5
COn1c(=O)c(-c2cc(NC(=O)Nc3ccc(C)c(C(F)(F)F)c3)ccc2Cl)cc2cnc(NCCN(C)C)nc21 [Compound 47, 1-{4-Chloro-3-[2-(2-dimethylamino-ethylamino)-8-methoxy-7-oxo-7,8-dihydro-pyrido[2,3-d]pyrimidin-6-yl]-phenyl}-3-(4-methyl-3-trifluoromethyl-phenyl)-urea] | > 70 | > 70 | < 5 | > 5
COn1c(=O)c(-c2cc(NC(=O)Nc3cc(C(F)(F)F)cc(C(F)(F)F)c3)ccc2Cl)cc2cnc(NCCN(C)C)nc21 [Compound 50, 1-(3,5-Bis-trifluoromethyl-phenyl)-3-{4-chloro-3-[2-(2-dimethylamino-ethylamino)-8-methoxy-7-oxo-7,8-dihydro-pyrido[2,3-d]pyrimidin-6-yl]-phenyl}-urea] | > 70 | > 70 | < 5 | < 10
COn1c(=O)c(-c2cc(NC(=O)c3cc(Cl)nc(N4CCOCC4)c3)ccc2Cl)cc2cnc(NCCN(C)C)nc21 [Compound 61, 2-Chloro-N-(4-chloro-3-(2-(2-(dimethylamino)ethylamino)-8-methoxy-7-oxo-7,8-dihydropyrido[2,3-d]pyrimidin-6-yl)phenyl)-6-morpholin-4-yl-isonicotinamide] | > 70 | > 70 | < 5 | > 10
COn1c(=O)c(-c2cc(NC(=O)c3cc(Cl)nc(NC(C)C)c3)ccc2Cl)cc2cnc(NCCN(C)C)nc21 [Compound 64, 2-Chloro-N-(4-chloro-3-(2-(2-(dimethylamino)ethylamino)-8-methoxy-7-oxo-7,8-dihydropyrido[2,3-d]pyrimidin-6-yl)phenyl)-6-isopropylamino-isonicotinamide] | > 70 | > 70 | < 5 | > 10
